Measured values published in patent US7652020B2, “Compounds for the treatment of inflammatory disorders” (Schering Corporation, priority 2004, dated 2010).
pKi: −log10 of the molar value.

Each compound was assayed against T1, purified catalytic domain of recombinant human TACE (rhTACEc) (Homo sapiens, UniProt P78536, N452Q/S266A) (assay: TACE kinetic assay: cleavage of internally quenched peptide substrate SPDL-3, fluorescence). Details: TACE inhibitory activity, class symbols; read-out: Ki.
T1 construct: Residue 215 to 477 with two mutation (S266A and N452Q) and a 6×His tail; 6xHis (C); made in house; host or cells: baculovirus/Hi5 insect cells
Assay type: biochemical
Description: TACE activity is determined by a kinetic assay measuring the rate of increase in fluorescent intensity generated by TACE catalyzed cleavage of an internally quenched peptide substrate (SPDL-3). […] It is purified from the baculovirus/Hi5 cells expression system using affinity chromatography. […] MCA is (7-Methoxycoumarin-4-yl)acetyl. Dpa is N-3-(2,4-Dinitrophenyl)-L-2,3-diaminopropionyl.
A 50 μl assay mixture contains 20 mM HEPES, pH 7.3, 5 mM CaCl2, 100 μM ZnCl2, 2% DMSO, 0.04% Methylcellulose, 30 μM SPDL-3, 70 pM rhTACEc and a test compound. RhTACEc is pre-incubated with the testing compound for 90 min. at 25° C. Reaction is started by addition of the substrate. […] Rate of enzymatic reaction is shown as Units per second. Effect of a test compound is shown as % of TACE activity in the absence of the compound.

T1 sequence (P78536 215-477 S266A/N452Q): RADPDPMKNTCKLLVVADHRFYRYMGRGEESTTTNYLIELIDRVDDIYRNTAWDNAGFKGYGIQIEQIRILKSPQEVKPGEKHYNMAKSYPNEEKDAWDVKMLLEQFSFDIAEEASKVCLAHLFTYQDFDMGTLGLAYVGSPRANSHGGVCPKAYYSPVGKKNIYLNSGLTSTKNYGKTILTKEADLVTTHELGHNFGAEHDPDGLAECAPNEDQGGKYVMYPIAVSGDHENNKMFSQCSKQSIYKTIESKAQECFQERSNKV

`C[C@@H]1CN(c2ccccc2C#N)CCC1CNC(=O)[C@H](O)[C@@H](O)C(=O)N1CCC[C@@H]1c1ccccc1` (stereo partly shown) [Compound 2144] and `C[C@@H]1CN(c2ccccc2C#N)CCC1CNC(=O)[C@H](O)[C@@H](O)C(=O)N1Cc2ccccc2C1` (stereo partly shown) [Compound 2143] cannot be ordered by pKi: greater than 7.70 for the first, greater than 7.70 for the second.

`C[C@@H](NC(=O)[C@H](O)[C@@H](O)C(=O)N1CCC[C@@H]1c1cn2ccccc2n1)c1ccc(-n2cccn2)cc1` [Compound 2507] and `C[C@@H](NC(=O)[C@H](O)[C@@H](O)C(=O)N1CCC[C@@H]1c1ccn(C)n1)c1ccc(-n2cccn2)cc1` [Compound 2248] cannot be ordered by pKi: greater than 7.70 for the first, greater than 7.70 for the second.

First: C[C@@H](NC(=O)[C@H](O)[C@@H](O)C(=O)N1C[C@H](O)C[C@H]1c1cccc(Cl)c1)c1ccc(-n2cccn2)cc1 [Compound 2265]
Second: C[C@@H](NC(=O)[C@H](O)[C@@H](O)C(=O)N1C[C@H](O)[C@H](O)[C@H]1c1cccc(Cl)c1)c1ccc(-n2cccn2)cc1 [Compound 2267]
The pKi of the first is higher: greater than 7.70 for the first, 6.00 to 7.00 for the second. The first binds more tightly here.

First: C[C@@H](NC(=O)[C@H](O)[C@@H](O)C(=O)N1CC2CC1CN2c1ccc(Cl)cc1)c1ccc(-n2cccn2)cc1 (stereo partly shown) [Compound 2099]
Second: C[C@@H](NC(=O)[C@H](O)[C@@H](O)C(=O)N1CCCCC1c1cccc(Cl)c1)c1ccc(-n2cccn2)cc1 (stereo partly shown) [Compound 2415]
The pKi of the first is lower: 6.00 to 7.00 for the first, 7.00 to 7.70 for the second. The second binds more tightly here.

Compared with `N#Cc1cc(F)ccc1N1C[C@@H]2C(CNC(=O)[C@H](O)[C@@H](O)C(=O)N3CCCC3)[C@@H]2C1` (stereo partly shown) [Compound 2147], `C[C@@H]1CN(c2ccc(F)cc2C#N)CCC1CNC(=O)[C@H](O)[C@@H](O)C(=O)N1CCCC1` (stereo partly shown) [Compound 2150] is higher in pKi: 6.00 to 7.00 for the first, 7.00 to 7.70 for the second. The second binds more tightly here.

`O=C([C@H](O)[C@@H](O)c1cncc(-c2ccccc2)n1)N1Cc2ccccc2C1` [Compound 2391] and `O=C([C@H](O)[C@@H](O)c1cncc(N2CCN(c3ccccc3)CC2)n1)N1Cc2ccccc2C1` [Compound 2393] cannot be ordered by pKi: less than 6.00 for the first, less than 6.00 for the second.

First: N#Cc1ccccc1N1CCC2(CC1)CC2NC(=O)[C@H](O)[C@@H](O)C(=O)N1CCC[C@@H]1c1ccccc1 (stereo partly shown) [Compound 2153]
Second: C[C@@H](NC(=O)[C@H](O)[C@@H](O)C(=O)N1CCCC1c1nccs1)c1ccc(-n2cccn2)cc1 (stereo partly shown) [Compound 2600]
The pKi of the first is lower: less than 6.00 for the first, greater than 7.70 for the second.

`CNc1nc([C@H]2CCCN2C(=O)[C@H](O)[C@@H](O)C(=O)N[C@H](C)c2ccc(-n3cccn3)cc2)cs1` [Compound 2252] and `CC(=O)Nc1nc([C@H]2CCCN2C(=O)[C@H](O)[C@@H](O)C(=O)N[C@H](C)c2ccc(-n3cccn3)cc2)cs1` [Compound 2579] cannot be ordered by pKi: greater than 7.70 for the first, greater than 7.70 for the second.

`C[C@@H](NC(=O)[C@H](O)[C@@H](O)C(=O)N1CCCC1(C)c1csc(N)n1)c1ccc(-n2cccn2)cc1` (stereo partly shown) [Compound 2243] and `C[C@@H](NC(=O)[C@H](O)[C@@H](O)C(=O)N1CCC[C@@H]1c1csc(N)n1)c1ccc(-n2cccn2)cc1` [Compound 2255] cannot be ordered by pKi: greater than 7.70 for the first, greater than 7.70 for the second.

`C[C@@H](NC(=O)[C@H](O)[C@@H](O)C(=O)N1CCC[C@@H]1c1csc(NS(C)(=O)=O)n1)c1ccc(-n2cccn2)cc1` [Compound 2581] and `C[C@@H](NC(=O)[C@H](O)[C@@H](O)C(=O)N1CCC[C@@H]1c1csc(N(C)S(C)(=O)=O)n1)c1ccc(-n2cccn2)cc1` [Compound 2582] cannot be ordered by pKi: greater than 7.70 for the first, greater than 7.70 for the second.

`CC1c2cncnc2CN1C(=O)[C@H](O)[C@@H](O)C(=O)N[C@H](C)c1ccc(-n2cccn2)cc1` (stereo partly shown) [Compound 2050] and `C[C@@H](NC(=O)[C@H](O)[C@@H](O)C(=O)N1CCc2nc(N)ncc2C1)c1ccc(-n2cccn2)cc1` [Compound 2075] fall in the same range of pKi: 7.00 to 7.70 for the first, 7.00 to 7.70 for the second.

`CNc1nc([C@H]2c3ccccc3CCN2C(=O)[C@H](O)[C@@H](O)C(=O)N[C@H](C)c2ccc(-n3cccn3)cc2)cs1` [Compound 2586] and `CCNc1nc([C@H]2c3ccccc3CCN2C(=O)[C@H](O)[C@@H](O)C(=O)N[C@H](C)c2ccc(-n3cccn3)cc2)cs1` [Compound 2587] cannot be ordered by pKi: greater than 7.70 for the first, greater than 7.70 for the second.

`C[C@@H](NC(=O)[C@H](O)[C@@H](O)C(=O)N1CCC[C@@H]1c1csc(Nc2cccnc2)n1)c1ccc(-n2cccn2)cc1` [Compound 2259] and `CC(C)Nc1nc([C@H]2CCCN2C(=O)[C@H](O)[C@@H](O)C(=O)N[C@H](C)c2ccc(-n3cccn3)cc2)cs1` [Compound 2257] cannot be ordered by pKi: greater than 7.70 for the first, greater than 7.70 for the second.

`C[C@@H](NC(=O)[C@H](O)[C@@H](O)C(=O)N1CCn2cnnc2C1)c1ccc(-n2cccn2)cc1` [Compound 2080] and `C[C@@H](NC(=O)[C@H](O)[C@@H](O)C(=O)N1CCn2ccnc2C1)c1ccc(-n2cccn2)cc1` [Compound 2082] fall in the same range of pKi: 6.00 to 7.00 for the first, 6.00 to 7.00 for the second.

`CCNc1nc([C@H]2c3ccccc3CN2C(=O)[C@H](O)[C@@H](O)C(=O)N[C@H](C)c2ccc(-n3cccn3)cc2)cs1` [Compound 2594] and `CC(C)Nc1nc([C@@H]2c3ccccc3CN2C(=O)[C@H](O)[C@@H](O)C(=O)N[C@H](C)c2ccc(-n3cccn3)cc2)cs1` [Compound 2593] cannot be ordered by pKi: greater than 7.70 for the first, greater than 7.70 for the second.

`Cc1cccc2c1CN(C(=O)[C@H](O)[C@@](C)(O)C(=O)N[C@H](C)c1ccc(-n3cccn3)cc1)C2` [Compound 2446] and `C[C@@H](NC(=O)[C@H](O)[C@@H](O)C(=O)N1CCc2ncccc2C1)c1ccc(-n2cccn2)cc1` [Compound 2077] fall in the same range of pKi: 7.00 to 7.70 for the first, 7.00 to 7.70 for the second.

`N#Cc1cc(F)ccc1N1CCC(CNC(=O)[C@H](O)[C@@H](O)c2ccccn2)CC1` [Compound 2382] and `Cn1cc(-c2ccccc2)nc1[C@H](O)[C@@H](O)C(=O)NCC1CCN(c2ccc(F)cc2C#N)CC1` [Compound 2396] cannot be ordered by pKi: less than 6.00 for the first, less than 6.00 for the second.

`CCOc1cc(F)ccc1-c1ccc(CNC(=O)[C@H](O)[C@@H](O)C(=O)N2CCCC2)nc1` [Compound 2349] and `CCOc1cc(F)ccc1-c1ccc(CNC(=O)[C@](C)(O)[C@@H](O)C(=O)N2Cc3cccnc3C2)cc1` [Compound 2033] cannot be ordered by pKi: greater than 7.70 for the first, greater than 7.70 for the second.

`Cc1nnc([C@H](O)[C@@H](O)C(=O)NCC2CCN(c3ccc(F)cc3C#N)CC2)n1C` [Compound 2399] and `N#Cc1cc(F)ccc1N1CCC(CNC(=O)[C@H](O)[C@@H](N)C(=O)N2CCCC2)CC1` [Compound 2456] cannot be ordered by pKi: less than 6.00 for the first, less than 6.00 for the second.

First: NC[C@@H]1[C@H]2CN(C(=O)[C@H](O)[C@@H](O)C(=O)NCC3CCN(c4ccccc4OC(F)(F)F)CC3)C[C@@H]12 [Compound 2156]
Second: C[C@@H](NC(=O)[C@H](O)[C@@H](O)C(=O)N1C2CCC1CC2)c1ccc(-n2cccn2)cc1 [Compound 2095]
The pKi of the first is higher: 7.00 to 7.70 for the first, 6.00 to 7.00 for the second.

Compared with `C[C@@H](NC(=O)[C@](C)(O)[C@@H](O)C(=O)N1Cc2cccnc2C1)c1ccc(-n2cccn2)c(OCc2ccccc2)c1` [Compound 2357], `C[C@@H](NC(=O)[C@H](O)[C@@H](O)C(=O)N1Cc2cccnc2C1)c1cccc(O)c1` [Compound 2307] is lower in pKi: greater than 7.70 for the first, less than 6.00 for the second.

Compared with `CC(c1cccc(Cl)c1)N(CC1CC1)C(=O)[C@H](O)[C@@H](O)C(=O)N[C@H](C)c1ccc(-n2cccn2)cc1` (stereo partly shown) [Compound 2485], `C[C@@H](NC(=O)[C@H](O)[C@@H](O)C(=O)N1CCc2ccccc21)c1ccc(-n2cccn2)cc1` [Compound 2441] is higher in pKi: less than 6.00 for the first, 7.00 to 7.70 for the second.

First: C[C@@H](NC(=O)[C@H](O)[C@@H](O)C(=O)N1C2CCC1c1cc(F)c(F)cc12)c1ccc(-n2cccn2)cc1 [Compound 2096]
Second: C[C@@H](NC(=O)[C@H](O)[C@@H](O)C(=O)N1CCCCC1c1nccs1)c1ccc(-n2cccn2)cc1 (stereo partly shown) [Compound 2416]
The pKi of the first is lower: 6.00 to 7.00 for the first, 7.00 to 7.70 for the second. The second binds more tightly here.

First: C[C@@H](NC(=O)[C@H](O)[C@@H](O)C(=O)N1CC(C)(C)CC1(C)c1nccs1)c1ccc(-n2cccn2)cc1 (stereo partly shown) [Compound 2241]
Second: C[C@@H](NC(=O)[C@H](O)[C@@H](O)C(=O)N1CCC[C@@H]1c1csc2nccn12)c1ccc(-n2cccn2)cc1 [Compound 2506]
The pKi of the first is lower: 6.00 to 7.00 for the first, greater than 7.70 for the second.

First: C[C@@H](NC(=O)[C@H](O)[C@@H](O)C(=O)N1CCC[C@@H]1c1ccn(-c2ccc(F)cc2)n1)c1ccc(-n2cccn2)cc1 [Compound 2599]
Second: C[C@@H](NC(=O)[C@H](O)[C@@H](O)C(=O)N1C[C@@H]2C[C@H](C1)c1cccc(=O)n1C2)c1ccc(-n2cccn2)cc1 [Compound 2097]
The pKi of the first is higher: greater than 7.70 for the first, 6.00 to 7.00 for the second. The first binds more tightly here.

Compound `C[C@H](c1ccc(-n2cccn2)cc1)N1CCO[C@H]([C@@H](O)C(=O)N2Cc3ccccc3C2)C1=O` [Compound 2474] has a pKi of less than 6.00.

Same assay, conditions: TACE, representative compounds, numeric values; read-out: Ki

Point of comparison: `CCNc1nnc(C2c3ccccc3CN2C(=O)[C@H](O)[C@@H](O)C(=O)N[C@H](C)c2ccc(-n3cccn3)cc2)o1` (stereo partly shown), pKi 9.25. Against it:
- CC#CCOc1cc([C@@H](C)NC(=O)[C@H](O)[C@@H](O)C(=O)N2CC=CC2c2cccc(Cl)c2)ccc1-n1cccn1 (stereo partly shown) [drawing 1314] — 0.44 log units lower, 8.81
- CCOC(=O)c1ccccc1-c1ccc(CNC(=O)[C@H](O)[C@@H](O)C(=O)N2CCC[C@@H]2c2ccccc2)cc1 — 0.81 log units lower, 8.44
- CNc1nc([C@H]2C[C@H]3C[C@H]3N2C(=O)[C@H](O)[C@@H](O)C(=O)N[C@H](C)c2ccc(-n3cccn3)cc2)cs1 [drawing 1312] — 0.40 log units lower, 8.85
- CC(C)Nc1nc([C@@H]2c3ccc(Cl)cc3CCN2C(=O)[C@H](O)[C@@H](O)C(=O)N[C@H](C)c2ccc(-n3cccn3)cc2)cs1 [drawing 1324] — 0.77 log units lower, 8.48
- CCNc1nc(C2c3ccccc3CN2C(=O)[C@H](O)[C@@H](O)C(=O)N[C@H](C)c2ccc(-n3cccn3)cc2)cs1 (stereo partly shown) — 0.55 log units higher, 9.80
- CNc1nc([C@H]2C=CCN2C(=O)[C@H](O)[C@@H](O)C(=O)N[C@H](C)c2ccc(-n3cccn3)cc2)cs1 [drawing 1300] — within 0.2 log units, 9.24
